Assay results taken from PMC6348443 (Journal of Medicinal Chemistry, 2018).
Structures can show the parent of a compound that is named as a salt. Where two headings read alike, the source gives them in different places.

Tests used:
[1] = tested on: male CD1 mice; test: acetic acid-induced writhing assay after sc administration; assay type: in vivo, mouse; conditions: for ED50: Mus musculus, 0.5 h, read-out: ED50 (95% CI), mice, sc, inhibition of writhing 30 min after drug administration
[2] = biological target: T1, MOR (Homo sapiens, UniProt P35372); test: competition radioligand binding, CHO cell membranes expressing human MOR, [3H]DAMGO
T1 construct: host or cells: CHO (CHO-hMOR)

[3] = biological target: T2, MOR (Rattus norvegicus, UniProt P33535); test: competition radioligand binding, rat brain membranes, [3H]DAMGO; conditions: for Ki: rat brain membranes, read-out: opioid receptor binding Ki MOR
T2 construct: Membranes were prepared from Sprague-Dawley rat brains or guinea-pig brains according to the described procedures; tissue Labortierkunde und Laborgenetik, Medizinische Universität Wien; host or cells: Sprague-Dawley rat brain without cerebella

[4] = biological target: T3, DOR (Homo sapiens, UniProt P41143); test: [35S]GTPγS binding assay, CHO-hDOR membranes; assay type: biochemical; conditions: for EC50: [35S]GTPγS, CHO human DOR membranes; for Emax: relative to reference full agonist DPDPE, read-out: DOR % stim.
T3 construct: host or cells: CHO (CHO-hDOR)

[5] = biological target: T4, DOR (Rattus norvegicus, UniProt P33533); test: competition radioligand binding, rat brain membranes, [3H][Ile5,6]deltorphin II; conditions: for Ki: rat brain membranes, read-out: opioid receptor binding Ki DOR
T4 construct: Membranes were prepared from Sprague-Dawley rat brains or guinea-pig brains according to the described procedures; tissue Labortierkunde und Laborgenetik, Medizinische Universität Wien; host or cells: Sprague-Dawley rat brain without cerebella
T4 sequence (P33533 whole entry): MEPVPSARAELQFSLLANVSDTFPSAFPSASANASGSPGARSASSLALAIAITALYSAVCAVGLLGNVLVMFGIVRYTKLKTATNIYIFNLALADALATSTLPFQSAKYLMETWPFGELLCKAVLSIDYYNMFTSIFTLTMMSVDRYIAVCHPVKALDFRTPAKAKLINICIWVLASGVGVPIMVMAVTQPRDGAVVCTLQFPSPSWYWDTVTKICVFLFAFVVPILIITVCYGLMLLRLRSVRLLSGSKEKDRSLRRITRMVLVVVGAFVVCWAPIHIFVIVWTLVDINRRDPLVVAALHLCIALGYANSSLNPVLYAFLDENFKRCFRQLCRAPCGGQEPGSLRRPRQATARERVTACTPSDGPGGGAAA

T2 sequence (P33535 whole entry): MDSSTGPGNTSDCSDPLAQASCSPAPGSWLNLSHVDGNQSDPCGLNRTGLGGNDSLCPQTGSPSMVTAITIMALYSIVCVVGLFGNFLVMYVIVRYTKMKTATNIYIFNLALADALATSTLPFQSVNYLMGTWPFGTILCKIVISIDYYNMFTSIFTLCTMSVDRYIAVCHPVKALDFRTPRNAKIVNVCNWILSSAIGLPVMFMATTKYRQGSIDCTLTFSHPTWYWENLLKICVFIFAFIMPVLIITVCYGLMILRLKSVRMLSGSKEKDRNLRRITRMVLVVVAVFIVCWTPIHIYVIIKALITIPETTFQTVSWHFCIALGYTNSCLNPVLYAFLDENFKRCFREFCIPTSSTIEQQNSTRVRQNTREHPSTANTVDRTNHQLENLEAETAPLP
T3 sequence (P41143 whole entry): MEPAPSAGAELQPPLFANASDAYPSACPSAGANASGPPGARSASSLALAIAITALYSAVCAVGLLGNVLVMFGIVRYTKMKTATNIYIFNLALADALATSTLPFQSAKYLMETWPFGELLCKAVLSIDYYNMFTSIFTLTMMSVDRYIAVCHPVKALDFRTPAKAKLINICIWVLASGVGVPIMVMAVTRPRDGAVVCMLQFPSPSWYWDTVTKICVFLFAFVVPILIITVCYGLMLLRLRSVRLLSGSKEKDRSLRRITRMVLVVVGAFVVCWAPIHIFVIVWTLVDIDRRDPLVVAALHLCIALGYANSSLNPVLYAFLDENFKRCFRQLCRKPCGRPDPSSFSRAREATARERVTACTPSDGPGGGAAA
T1 sequence (P35372 whole entry): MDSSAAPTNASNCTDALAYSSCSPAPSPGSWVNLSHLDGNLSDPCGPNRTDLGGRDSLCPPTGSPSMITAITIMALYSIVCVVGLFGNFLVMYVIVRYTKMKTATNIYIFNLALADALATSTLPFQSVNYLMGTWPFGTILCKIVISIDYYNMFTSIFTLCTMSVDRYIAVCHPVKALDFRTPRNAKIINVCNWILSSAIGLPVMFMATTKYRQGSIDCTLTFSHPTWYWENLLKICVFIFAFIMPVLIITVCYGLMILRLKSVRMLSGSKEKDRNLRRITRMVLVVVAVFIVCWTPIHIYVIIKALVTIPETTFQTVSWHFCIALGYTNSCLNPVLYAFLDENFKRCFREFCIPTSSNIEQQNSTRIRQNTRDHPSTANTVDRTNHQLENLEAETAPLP

SMILES	ED50 [1]	ED50 (95% CI) ([1]; mice, inhibition of writhing 30 min after drug administration)	Ki [2]	Ki ratio MOR/DOR/KOR ([3]; from Ki in rat (MOR, DOR) and guinea-pig (KOR) brain membranes)	DOR/MOR selectivity ratio ([3]; from Ki in rat brain, for 1 from Ki of ref 44)	Ki [3]	EC50 [4]	Emax [4]	Ki [5]	decreased DOR affinity vs 6β analogue ([5]; rat brain, 18a vs 18b, 19a vs 19b)	higher antinociceptive potency than morphine ([1]; writhing assay, mice)	Ki ([2]; CHO cell membranes expressing human MOR, read-out: Ki MOR)	increase in MOR binding affinity vs comparator ([3]; rat brain, 17b vs 4b, 16a/b vs 7a/b, 22a/b vs 7a, 7b and 9b, 14a vs 14b)	functional profile at DOR (full/partial agonist) ([4]; full agonist ≥85% of the response to DPDPE)
CC[C@H](N[C@H]1CC[C@@]2(OC)[C@H]3Cc4ccc(O)c5c4[C@@]2(CCN3C)[C@H]1O5)C(=O)O [Compound 19a, (2S)-2-[(4,5α-Epoxy-3-hydroxy-14β-methoxy-17-methylmorphinan-6α-yl)amino]-2-ethylacetic Acid Dihydrochloride]	< 0.02 mg/kg	17.5 (5.13–59.6) μg/kg	0.95 ± 0.13 nM	1/49/189	49	0.76 ± 0.19 nM	98.2 ± 5.1 nM	104 ± 9%	37.5 ± 3.4 nM	29 times	–	–	–	–
CO[C@@]12CC[C@H](N[C@H](C(=O)N[C@@H](Cc3ccc(O)cc3)C(=O)O)C(C)C)[C@@H]3Oc4c(O)ccc5c4[C@@]31CCN(C)[C@@H]2C5 [Compound 22a, (2S)-2-[[(4,5α-Epoxy-3-hydroxy-14β-methoxy-17-methylmorphinan-6α-yl)amino]-(2S)-3-methylbutyrylamino]-3-(4-hydroxyphenyl)propionic Acid]	0.178 mg/kg	–	–	–	–	0.82 ± 0.13 nM	1.16 ± 0.6 nM	88 ± 5%	1.19 ± 0.42 nM	–	2.5 times	1.29 ± 0.13 nM	4 to 7 times	full agonists
